# Experimental data published in US10906169B1, “Muscle-powered biological machines” (The Board of Trustees of the University of Illinois, priority 2016, dated 2021).
# “Also recorded” adds a separate entry of the source.
# Columns and labels:
# [1] = tested on: MNs in multi-layered tissue rings; experiment: Chemical stimulation of motor neurons in multi-layered tissue rings (muscle contraction tracked by video); assay type: cell-based, mouse; conditions: for effect on glutamate-induced muscle contractions: 25 μM curare added after glutamate stimulation; for frequency of muscle twitching / average displacement: day 9 after co-culture
# Protocol: To stimulate motor neurons in tissue rings, glutamate was added to cell culture medium in a bath application of either 200 μM or 400 μM, as noted. Tissues were then transferred to fresh medium. After chemical stimulation, the nicotinic AChR antagonist curare was added to cell culture medium in a bath application of 25 μM. Tissues were then rinsed in PBS and transferred to fresh medium.
# Muscle contraction within tissue rings was captured using a digital camera on a stereomicroscope with a capture rate of 5-10 frames s^−1. Image sequences were exported to .avi files. A custom Matlab script was used to calculate x-y displacement of user-specified regions of interest using normalized 2D cross-correlation, as described previously^3.
# On day 9 after co-culture, we chemically stimulated MNs by adding glutamate. Multi-layered tissue rings were first subjected to a bath application of 200 μM glutamate in complete neural differentiation medium. Through video recordings, we observed that local muscle contraction began in response to chemical stimulation of MNs (FIG. 16d). When we increased the glutamate concentration from 200 to 400 μM, the frequency of muscle twitching increased from 1.08 to 1.33 contractions sec^−1, while the average displacement decreased from 6.3±0 to 4.4±0.2 μm per twitch (FIG. 16e).
# EBs containing MNs = experiment: Neurite growth from embryoid bodies on 2D ECM-coated substrates; assay type: cell-based, mouse
# Protocol: 4. Neurite Growth Measurements. After day 9 of differentiation, EBs were plated on either collagen I or Matrigel™ coated dishes in complete neural differentiation medium. […] Live samples were imaged on days 10-14 using an inverted fluorescent microscope for 2D cultures (IX81, Olympus) or a confocal microscope for 3D tissue rings (LSM710, Zeiss). The NeuronJ plug-in (ImageScience) for ImageJ was used to measure neurite growth distances (FIG. 17).
# When allowed to adhere to natural ECM substrates such as collagen I13A and Matrigel™ (FIG. 13b and FIG. 19b), EBs containing MNs attached readily and extended neurites across the gels. Neurites grew 417.5±154.8 and 999.1+356.9 μm after 4 days of attachment (propagating at nearly linear rates of 88.6 and 264.8 μm day^−1) on collagen I and Matrigel™ surfaces, respectively (FIG. 13c). Similarly, EBs adhered to (and extended neurites across) the surface of 2D layers of differentiated C2C12s (FIG. 13d and FIG. 19c). After 5 days of co-culture, we identified clusters of post-synaptic acetylcholine receptors (visualized with fluorescently-conjugated α-BTX, which binds to a subunit of AChR) near the termination of neurite extensions on myotubes (FIG. 13e).
compound,measurement,setting,value
(+)-tubocurarine chloride hydrochloride pentahydrate [curare],frequency of contraction after addition,[1]; 25 μM curare (FIG. 16e),0 observed contractions
same,effect on glutamate-induced muscle contractions,[1],halted the contractions; also recorded: terminated the contractions
same,effect on glutamate-induced muscle contractions,[1]; listed as tubocurarine chloride (curare),halted the contractions
"N[C@@H](CCC(=O)O)C(=O)O [glutamate, L-glutamic acid]",frequency of contraction,"[1]; 200 μM glutamate (FIG. 16e, mean values)",1.08 contractions/s
same,frequency of muscle twitching,[1]; 200 μM glutamate bath application,1.08 contractions sec^−1
same,average displacement,[1]; 200 μM glutamate,6.3±0 μm per twitch
same,frequency of contraction,"[1]; 400 μM glutamate (FIG. 16e, mean values)",1.33 contractions/s
same,frequency of muscle twitching,[1]; 400 μM glutamate bath application,1.33 contractions sec^−1
same,average displacement,[1]; 400 μM glutamate,4.4±0.2 μm per twitch
same,dependence of contraction frequency on concentration,"[1]; chemical stimulation of MNs, 200 and 400 μM glutamate",frequency of contraction increasing with glutamate concentration
collagen I: natural ECM substrate; collagen I-coated dishes from Gibco,rate of neurite propagation (nearly linear),"EBs containing MNs; EBs attached to the coated surface, over 4 days",88.6 μm day^−1
same,neurite growth,EBs containing MNs; after 4 days of attachment of EBs to the coated surface,417.5±154.8 μm
